In ChEMBL document CHEMBL1275593 (2010) one finds MIC data, which are given here for one compound.

Values after ≈ are worked out from the molar mass of the structure shown.

Assay [1] relates to Bacillus anthracis. Kind of assay: microbe, parasite or virus in culture. The conditions noted are these: BA104.
Assay [2] has as its system Bacillus anthracis. Briefly: microbe, parasite or virus in culture. The following applies: BA103.

Consider `O=C(O)c1cn(C2CC2)c2cc(N3CCNCC3)c(F)cc2c1=O` [CIPROFLOXACIN], for which the MIC with Bacillus anthracis [1] and with Bacillus anthracis [2] was 0.064 mg/L (≈ 0.193 µM) throughout.
